How the values were obtained:
platelets = test: Platelet recovery in peripheral blood after 5FU; format: in vivo, mice; conditions: after 5FU 150 mg/kg once; ABC294640 10 mg/kg every other day; days 0, 1, 5, 11; vs solvent control; FIG. 6
Procedure: Preparation of the SphK2 inhibitor was as described in Example 4. Twelve 8-week-old C57 mice purchased from Laboratory Animal Center, Sun Yat-sen University were selected and divided evenly into two groups. The mice were intraperitoneally injected with 5FU at a dose of 150 mg/kg once. The injection of the inhibitor ABC294640 and the solvent control solution was as described in Example 4, which started from the day after 5-fluorouracil injection, followed by injections once every other day, at a dose of 10 mg/kg, until the end of the experiment. Periphery blood (PB) of each mouse was separately collected to determine white blood cell (WBC) counts 0, 1, 5 and 11 days after 5-FU administration. T-test analysis was carried out using Graphpad6.0, and differences were considered statistically significant when P<0.05.
The experiment was conducted as described in Example 5. Periphery blood (PB) of each mouse was separately collected to determine platelets (PLT) counts 0, 1, 5 and 11 days after 5-FU administration. T-test analysis was carried out using Graphpad6.0, and differences were considered statistically significant when P<0.05.

hematopoietic stem cells = test: Hematopoietic stem cell number and cell cycle in uninjured mice after ABC294640 treatment; format: in vivo; conditions: vs solvent control
Description: FIG. 27. illustrates the absolute number of HSPCs (LT-HSC, ST-HSC, MPP and CD150HSC) in the bone marrow (a) and cell cycle analysis of CD150 HSCs (b) in bone marrow from C57BL/6J mice after ABC294640 or solvent control treatment (n=5 mice). Data represent mean±s.d. Two-tailed Student's t-tests were used to assess statistical significance. *P<0.05, **P<0.01, ***P<0.001. To analyze whether Sphk2 inhibitor is effective in expanding hematopoietic stem cell number and enhance their function. Twenty 8-week-old C57 mice (purchased from Laboratory Animal Center, Sun Yat-sen University) were selected for the experiment. The mice were divided evenly into an inhibitor treatment group and a control group. The mice were injected intraperitoneally with ABC294640 (inhibitor treatment group) or solvent control (1:1 physiological saline: PEG400) solution (control group) every other day. 14 days after the first injection, bone marrow cells were harvested from both groups, and were analyzed for the number of hematopoietic stem cells, with methods and analysis as described in Example 1. To evaluate the hematopoietic function of the hematopoietic stem cells, 2×10^5 bone marrow cells from Sphk2 inhibitor or solvent control treated mice were transplanted into irradiated recipients (as described in Example 13). Peripheral blood was collected from the tail vein every 4 weeks after transplantation. The hematopoietic repopulation function was examined from donor-derived blood cells. The Sphk2 inhibitor was prepared as described in Example 4. Briefly, ABC294640 was purchased from Selleck and dissolved in dimethyl sulfoxide (DMSO), which was finally diluted with a mixture solution of polyethylene glycol 400 (PEG400) and physiological saline (1:1) to be administered at a dose of 10 mg/kg. T-test analysis was carried out using Graphpad6.0, and differences were considered statistically significant when *P<0.05, **P<0.01 and ***P<0.001.

O=C(NCc1ccncc1)C12CC3CC(C1)CC(c1ccc(Cl)cc1)(C3)C2 [ABC294640, 3-(4-chloro-phenyl)-adamantane-1-carboxylic acid (pyridin-4-ylmethyl)-amide]
number of platelets from the peripheral blood (platelets): significantly increased
increase of number of hematopoietic stem cells (hematopoietic stem cells; ABC294640 10 mg/kg i.p. every other day, 14 days after first injection, FIG. 14 panel b): 1.7 fold
increase of CD150 HSCs (expanded HSC pool) (hematopoietic stem cells; FIG. 27): 1.7 fold
increase of LT-HSCs (expanded HSC pool) (hematopoietic stem cells; FIG. 27): 2.1 fold
quiescence of HSCs (cell cycle analysis of CD150 HSCs) (hematopoietic stem cells; FIG. 27): increased quiescence

Reference: US20210369691A1, “METHODS AND COMPOSITIONS FOR IMPROVING BONE MARROW HEMATOPOIETIC FUNCTIONS” (Sun Yat-Sen University, priority 2018, published 2021)
